Data on 1 compound can be found in publication PMC6479881 (Molecules, 2019).

The target in the test is T1, Enterococcus faecalis thymidylate synthase (EfTS) (Enterococcus faecalis, UniProt Q834R3).
T1 construct: gene thyA
T1 sequence (Q834R3 1-315): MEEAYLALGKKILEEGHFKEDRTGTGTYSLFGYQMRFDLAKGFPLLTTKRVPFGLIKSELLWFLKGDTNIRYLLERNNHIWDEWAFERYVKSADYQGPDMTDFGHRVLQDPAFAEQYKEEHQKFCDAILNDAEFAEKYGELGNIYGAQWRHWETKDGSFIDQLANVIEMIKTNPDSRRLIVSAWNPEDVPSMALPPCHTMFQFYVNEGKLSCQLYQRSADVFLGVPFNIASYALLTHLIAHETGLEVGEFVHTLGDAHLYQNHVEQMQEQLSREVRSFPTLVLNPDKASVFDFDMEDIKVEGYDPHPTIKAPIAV
Kind of test: crystal structure at […] Å; spectrophotometric enzyme inhibition assay (IC50 […], Ki calculated). The format is biochemical.

Molecules are shown by their SMILES.

With `O=c1[nH]c(=O)n([C@H]2C[C@H](O)[C@@H](COP(=O)(O)O)O2)cc1F` [FdUMP, 5-fluoro-2′-deoxyuridine-5′-monophosphate], the inhibitory constant (Ki) was 74 nM.
